Consider 12 molecules from US20200131669A1, “CYCLIC PEPTIDE COMPOUND HAVING HIGH MEMBRANE PERMEABILITY, AND LIBRARY CONTAINING SAME” (Chugai Seiyaku Kabushiki Kaisha, priority 2017, published 2020).

The structures appear in SMILES notation. Starred links: 1 amine or outer side, 2 acyl side, 3 side chain; linkers in the order of their positions; H or OH if unused. Positions of bridges follow the written chain, without caps; N, C: chain ends. Non-standard residues stand in square brackets, D forms with d. Residues, ends and D or L forms follow the SMILES beside them. *: point of attachment. X13 = O=C([C@@H]1C[C@H](N2CCC(F)(F)CC2)CN1[*:1])[*:2]; X4 = O=C([C@@H]1C[C@@H](N2CCC(F)(F)CC2)CN1[*:1])[*:2]; NMePhe(3-Cl) = CN[C@@H](Cc1cccc(Cl)c1)C(=O)O; X12 = CCCC[C@@H](O)[C@H](N[*:1])C(=O)[*:2]; X15 = CN([C@H](CCN1CCOCC1)C(=O)[*:2])[*:1]; X8 = O=C(CN(CCN1CCC(F)(F)CC1)[*:1])[*:2]; NMeF = CN[C@@H](Cc1ccccc1)C(=O)O; NMeGABA = CN(CCCC(=O)[*:2])[*:1]; NMeL = CN[C@@H](CC(C)C)C(=O)O; NMeV = CN[C@H](C(=O)O)C(C)C; NMeA = CN[C@@H](C)C(=O)O; Piperidide = C1CCN(*)CC1; dAbu = CC[C@@H](N)C(=O)O; NBuGly = CCCCNCC(=O)O; Sar = CNCC(=O)O; tBu = CC(C)(C)*

One data set in a line: Caco-2 membrane permeability, improved method as used in the following Examples (96-well, 20 to 24 h preincubation). Particulars: human, Caco-2, Caco-2. The data set is classed as in vitro ADME. The method, boiled down:
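Papp (cm/sec) was derived from LC/MS of basal samples collected 180 min after apical dosing in FaSSIF/HBSS pH 6.0 with 1% DMSO, against a basal HBSS pH 7.4 receiver containing 4% BSA. Three-week Caco-2 cultures were first preincubated with compound in DMEM+FaSSIF at 37 °C for 20–24 h.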
As to `CCCCN1CC(=O)N(C)[C@H](CCN2CCOCC2)C(=O)N[C@H](C(=O)N2CCCCC2)CC(=O)N(C)[C@@H](C)C(=O)N[C@@H](CC(C)C)C(=O)N(C)[C@@H](CC(C)C)C(=O)N(C)[C@@H](Cc2ccccc2)C(=O)N[C@@H](CC(C)C)C(=O)N(C)[C@@H](Cc2ccccc2)C(=O)N(C)[C@@H](CC(C)C)C(=O)N[C@@H]([C@@H](C)O)C1=O` [pd454] ([NMeA]L[NMeL][NMeF]L[NMeF][NMeL]T[NBuGly][X15]D-Piperidide; lactam N-11), the Papp A→B at 180 min was determined as 1.2 ×10⁻⁶ cm/s.
The same measure, in the same setting: for `CC(C)C[C@@H]1NC(=O)[C@H](Cc2ccccc2)N(C)C(=O)[C@H](CC(C)C)N(C)C(=O)[C@H](CC(C)C)NC(=O)[C@H](C)N(C)C(=O)C[C@@H](C(=O)N2CCCCC2)NC(=O)[C@H](CC(C)C)N(C)C(=O)CN(C)C(=O)[C@H]([C@@H](C)O)NC(=O)CN(CCN2CCC(F)(F)CC2)C(=O)[C@H](Cc2ccccc2)N(C)C1=O` [pd456] ([NMeA]L[NMeL][NMeF]L[NMeF][X8]T[Sar][NMeL]D-Piperidide; lactam N-11) the value was 5 ×10⁻⁶ cm/s.
On the same count and under the same terms, with `CC(C)C[C@H]1C(=O)N[C@@H](COC(C)(C)C)C(=O)N(C)[C@@H](Cc2ccccc2)C(=O)N(C)[C@@H](CC(C)C)C(=O)N[C@H](C(=O)N2CCCCC2)CC(=O)N2C[C@H](N3CCC(F)(F)CC3)C[C@H]2C(=O)N(C)[C@@H](Cc2cccc(Cl)c2)C(=O)N[C@@H](C(C)C)C(=O)N(C)[C@@H](C(C)C)C(=O)N[C@@H]([C@@H](C)O)C(=O)N(C)CC(=O)N1C` [pd458] ([X4][NMePhe(3-Cl)]V[NMeV]T[Sar][NMeL]S(tBu)[NMeF][NMeL]D-Piperidide; lactam N-11) the figure was 1.2 ×10⁻⁶ cm/s.
The same measure, in the same setting: for `CC[C@H]1NC(=O)C[C@@H](C(=O)N2CCCCC2)NC(=O)[C@H](CC(C)C)N(C)C(=O)[C@H](Cc2ccccc2)NC(=O)[C@@H]2C[C@@H](N3CCC(F)(F)CC3)CN2C(=O)[C@H]([C@@H](C)O)NC(=O)[C@H](CC(C)C)N(C)C(=O)[C@H](CC(C)C)NC(=O)[C@H](CC(C)C)N(C)C(=O)[C@H](COC(C)(C)C)NC(=O)[C@H](CC(C)C)N(C)C1=O` [pd459] ([dAbu][NMeL]S(tBu)[NMeL]L[NMeL]T[X4]F[NMeL]D-Piperidide; lactam N-11) the value was 1.6 ×10⁻⁶ cm/s; for `CC(C)C[C@H]1C(=O)N(C)[C@@H](CC(C)C)C(=O)N(C)[C@@H](CC(C)C)C(=O)N(C)[C@@H](Cc2ccccc2)C(=O)N[C@@H]([C@@H](C)O)C(=O)N(C)[C@@H](Cc2ccccc2)C(=O)N(C)[C@@H](CC(C)C)C(=O)N2C[C@H](N3CCC(F)(F)CC3)C[C@H]2C(=O)N[C@H](C(=O)N2CCCCC2)CC(=O)N[C@@H](C(C)C)C(=O)NCC(=O)N1C` [pd460] (VG[NMeL][NMeL][NMeL][NMeF]T[NMeF][NMeL][X4]D-Piperidide; lactam N-11), 1.2 ×10⁻⁶ cm/s; for `CC(C)C[C@H]1C(=O)N[C@@H](COC(C)(C)C)C(=O)N(C)[C@@H](Cc2ccccc2)C(=O)N(C)[C@@H](CC(C)C)C(=O)N[C@H](C(=O)N2CCCCC2)CC(=O)N2C[C@@H](N3CCC(F)(F)CC3)C[C@H]2C(=O)N(C)[C@@H](Cc2cccc(Cl)c2)C(=O)N[C@@H](C(C)C)C(=O)N(C)[C@@H](C(C)C)C(=O)N[C@@H]([C@@H](C)O)C(=O)N(C)CC(=O)N1C` [pd461] ([X13][NMePhe(3-Cl)]V[NMeV]T[Sar][NMeL]S(tBu)[NMeF][NMeL]D-Piperidide; lactam N-11), 1.4 ×10⁻⁶ cm/s.
Molecule `CCCC[C@@H](O)[C@@H]1NC(=O)[C@H](CC(C)C)N(C)C(=O)[C@H](C)NC(=O)[C@H](Cc2ccccc2)N(C)C(=O)[C@@H](C(C)C)NC(=O)C[C@@H](C(=O)N2CCCCC2)NC(=O)[C@H](C)N(C)C(=O)[C@H](Cc2ccccc2)N(C)C(=O)[C@H](COC(C)(C)C)NC(=O)[C@H](CC(C)C)N(C)C(=O)CN(C)C1=O` [pd467] ([dV][NMeF]A[NMeL][X12][Sar][NMeL]S(tBu)[NMeF][NMeA]D-Piperidide; lactam N-11) showed a Papp A→B at 180 min of 1.4 ×10⁻⁶ cm/s.
Same read-out and setting: for `CCCC[C@@H](O)[C@@H]1NC(=O)[C@H](Cc2ccccc2)N(C)C(=O)[C@H](Cc2ccccc2)N(C)C(=O)[C@H]([C@@H](C)CC)NC(=O)[C@H](CC(C)C)N(C)C(=O)CCCN(C)C(=O)C[C@@H](C(=O)N2CCCCC2)NC(=O)[C@H](CC(C)C)N(C)C(=O)[C@H](C)N(C)C(=O)[C@H]([C@@H](C)O)NC(=O)[C@H](CC(C)C)N(C)C1=O` [pd468] ([NMeGABA][NMeL]I[NMeF][NMeF][X12][NMeL]T[NMeA][NMeL]D-Piperidide; lactam N-11) the value was 1 ×10⁻⁶ cm/s.
Take `CCCC[C@@H](O)[C@@H]1NC(=O)[C@H](CC(C)C)N(C)C(=O)[C@H](Cc2ccccc2)N(C)C(=O)[C@H](C)NC(=O)[C@H](Cc2ccccc2)N(C)C(=O)[C@H](CC(C)C)N(C)C(=O)[C@H](C(C)C)NC(=O)[C@H](C)N(C)C(=O)C[C@@H](C(=O)N2CCCCC2)NC(=O)[C@H](CC(C)C)N(C)C(=O)CN(C)C1=O` [pd469] ([NMeA]V[NMeL][NMeF]A[NMeF][NMeL][X12][Sar][NMeL]D-Piperidide; lactam N-11): the Papp A→B at 180 min was found to be 2.5 ×10⁻⁶ cm/s.
On to `CC(=O)NCCCC[C@@H]1NC(=O)[C@H](CC(C)C)N(C)C(=O)[C@H](CC(C)C)NC(=O)[C@H](Cc2ccccc2)N(C)C(=O)[C@@H](C(C)C)NC(=O)C[C@@H](C(=O)N2CCCCC2)NC(=O)[C@H](C(C)C)N(C)C(=O)[C@H](Cc2ccccc2)N(C)C(=O)[C@H](COC(C)(C)C)NC(=O)[C@H](CC(C)C)N(C)C(=O)CN(C)C1=O` [pd470] ([dV][NMeF]L[NMeL]K(Ac)[Sar][NMeL]S(tBu)[NMeF][NMeV]D-Piperidide; lactam N-11), for which the Papp A→B at 180 min stood at 2.1 ×10⁻⁶ cm/s.
Same read-out and setting: for `CC(=O)NCCCC[C@@H]1NC(=O)[C@H](CC(C)C)N(C)C(=O)[C@H](CC(C)C)NC(=O)[C@H](Cc2ccccc2)N(C)C(=O)[C@@H](CC(C)C)NC(=O)C[C@@H](C(=O)N2CCCCC2)NC(=O)[C@H](C(C)C)N(C)C(=O)[C@H](Cc2ccccc2)N(C)C(=O)[C@H](COC(C)(C)C)NC(=O)[C@H](CC(C)C)N(C)C(=O)CN(C)C1=O` [pd471] ([dL][NMeF]L[NMeL]K(Ac)[Sar][NMeL]S(tBu)[NMeF][NMeV]D-Piperidide; lactam N-11) the value was 2.1 ×10⁻⁶ cm/s.

Still in this data set, the particulars now being: human; Papp, Caco-2 membrane permeability, improved method; read-out: Caco-2.
Take `CNC(=O)CC[C@@H]1NC(=O)[C@H](CC(C)C)N(C)C(=O)[C@H](C(C)C)N(C)C(=O)[C@H](Cc2ccccc2)NC(=O)[C@H](Cc2ccccc2)N(C)C(=O)[C@H](CC(C)C)N(C)C(=O)[C@H](CC(C)C)NC(=O)[C@H](CC(C)C)N(C)C(=O)C[C@@H](C(=O)N2CCCCC2)NC(=O)[C@H](CC(C)C)N(C)C(=O)CN(C)C1=O` [pd463] ([NMeL]L[NMeL][NMeF]F[NMeV][NMeL]E(NHMe)[Sar][NMeL]D-Piperidide; lactam N-11): the Papp A→B at 180 min is 1.2 ×10⁻⁶ cm/s.
